Source: publication PMC3741170, “Reconstructing the Qo Site of Plasmodium falciparum bc 1 Complex in the Yeast Enzyme” (PLoS ONE, 2013)
Where “and” joins values, the source holds several entries; their conditions need not be identical. Equal values may be shown once.

What was measured:
[1] = tested on: yeast bc 1 complex, Plasmodium-like Qo mutant PF11; assay: Quinol:cytochrome c reductase activity, inhibitor titration, Plasmodium-like mutant PF11; type: biochemical, Saccharomyces cerevisiae; conditions: for IC50: PF11, ratio of IC50 on concentration of monomeric bc 1 complex
Description: (§1) The mutants were generated by side-directed mutagenesis and mitochondrial transformation as described in [15]. They have identical nuclear and mitochondrial genomes with the exception of the mutations introduced in the cytochrome b gene.
(§2) Yeast mitochondria were prepared as in [16]. Bovine mitochondrial samples were kindly given by Prof. Peter Rich (UCL, UK). Quinol:cytochrome c reductase activity measurements were performed in 10mM potassium phosphate pH 7 and 20µM equine cytochrome c at room temperature. Mitochondria were diluted to 5–30 nM bc 1 complex. Concentrations of monomeric bc 1 complex were determined from the cytochrome b α-band in dithionite-reduced optical spectra, using ε = 28.5 mM^−1.cm^−1 at 562 nm minus 575 nm. Activity was initiated by the addition of 20µM decylubiquinol. Cytochrome c reduction was recorded at 550 nm versus 540 nm over a 3-min time-course in a Beckmann DU 640 spectrophotometer. Initial rates were measured. From these rates, turnover numbers (TN) were calculated as cytochrome c reduced per bc 1 complex per second.
(§3) Cytochrome c reduction activity was measured as described above in presence of increasing concentrations of inhibitors (six to ten different concentrations). Each measurement was repeated at least twice and averaged. […] The mid-point inhibition concentrations (IC50) were determined from the titrations. As the titrations were performed using mitochondrial samples containing different concentrations of bc 1 complex (5–30 nM), the results were presented as ratio of IC50 on the concentration of bc 1 complex.

[2] = molecular target: T1, yeast bc 1 complex, human-like Qo mutant HSc (Saccharomyces cerevisiae, UniProt P00163, C133V/C134L/F278A/H141F/L275F/M295L/V135P/Y136W); assay: Quinol:cytochrome c reductase activity, inhibitor titration, human-like mutant HSc; type: biochemical; conditions: for IC50: HSc, ratio of IC50 on concentration of monomeric bc 1 complex
T1 construct: Yeast mitochondria were prepared as in; expressed in transfected cells; host or cells: Saccharomyces cerevisiae, mitochondrial transformation; mitochondria
Description: as §1, §2, §3

[3] = tested on: P. falciparum; conditions: read-out: IC50, P. falciparum proliferation; cited from earlier work
[4] = molecular target: T2, yeast bc 1 complex, Plasmodium-like Qo mutant PF1 (Saccharomyces cerevisiae, UniProt P00163, C133V/C134L/H141Y/V135P/Y136W); assay: Quinol:cytochrome c reductase activity, inhibitor titration, Plasmodium-like mutant PF1; type: biochemical; conditions: ratio of IC50 on concentration of monomeric bc 1 complex
T2 construct: Yeast mitochondria were prepared as in; expressed in transfected cells; host or cells: Saccharomyces cerevisiae, mitochondrial transformation; mitochondria
Description: as §1, §2, §3

[5] = molecular target: T3, yeast bc 1 complex, cytochrome b mutant F278A (Saccharomyces cerevisiae, UniProt P00163, F278A); assay: Quinol:cytochrome c reductase activity, inhibitor titration, mutant F278A; type: biochemical; conditions: for IC50 increase (resistance) vs WT: F278A vs yeast WT; for IC50: F278A, ratio of IC50 on concentration of monomeric bc 1 complex
T3 construct: Yeast mitochondria were prepared as in; expressed in transfected cells; host or cells: Saccharomyces cerevisiae, mitochondrial transformation; mitochondria
Description: as §1, §2, §3

[6] = molecular target: T4, Yeast WT bc 1 complex (Saccharomyces cerevisiae, UniProt P00163); assay: Quinol:cytochrome c reductase activity, inhibitor titration, yeast WT mitochondria; type: biochemical; conditions: ratio of IC50 on concentration of monomeric bc 1 complex
T4 construct: Yeast mitochondria were prepared as in; endogenous in cells; host or cells: Saccharomyces cerevisiae mitochondria
Description: as §2, §3

[7] = molecular target: T5, yeast bc 1 complex, cytochrome b mutant Y279S (Saccharomyces cerevisiae, UniProt P00163, Y279S); assay: Quinol:cytochrome c reductase activity, inhibitor titration, mutant Y279S; type: biochemical; conditions: ratio of IC50 on concentration of monomeric bc 1 complex
T5 construct: Yeast mitochondria were prepared as in; expressed in transfected cells; host or cells: Saccharomyces cerevisiae, mitochondrial transformation; mitochondria
Description: as §1, §2, §3

[8] = molecular target: yeast bc 1 complex, human-like Qo mutant HSa; assay: Quinol:cytochrome c reductase activity, inhibitor titration, human-like mutant HSa; type: biochemical, Saccharomyces cerevisiae; conditions: ratio of IC50 on concentration of monomeric bc 1 complex
Description: as §1, §2
Cytochrome c reduction activity was measured as described above in presence of increasing concentrations of inhibitors (six to ten different concentrations). Each measurement was repeated at least twice and averaged. […] The mid-point inhibition concentrations (IC50) were determined from the titrations. […]

[9] = molecular target: T6, yeast bc 1 complex, cytochrome b mutant M295L (Saccharomyces cerevisiae, UniProt P00163, M295L); assay: Quinol:cytochrome c reductase activity, inhibitor titration, mutant M295L; type: biochemical; conditions: for IC50: M295L, ratio of IC50 on concentration of monomeric bc 1 complex
T6 construct: Yeast mitochondria were prepared as in; expressed in transfected cells; host or cells: Saccharomyces cerevisiae, mitochondrial transformation; mitochondria
Description: as §1, §2, §3

[10] = tested on: yeast bc 1 complex, Plasmodium-like Qo mutant PF8; assay: Quinol:cytochrome c reductase activity, inhibitor titration, Plasmodium-like mutant PF8; type: biochemical, Saccharomyces cerevisiae; conditions: for IC50: ratio of IC50 on concentration of monomeric bc 1 complex
Description: as §1, §2, §3

[11] = molecular target: T7, yeast bc 1 complex, cytochrome b mutant L275F (Saccharomyces cerevisiae, UniProt P00163, L275F); assay: Quinol:cytochrome c reductase activity, inhibitor titration, mutant L275F; type: biochemical; conditions: for IC50: L275F, ratio of IC50 on concentration of monomeric bc 1 complex
T7 construct: Yeast mitochondria were prepared as in; expressed in transfected cells; host or cells: Saccharomyces cerevisiae, mitochondrial transformation; mitochondria
Description: as §1, §2, §3

[12] = tested on: yeast bc 1 complex, Plasmodium-like Qo mutant PF12 (PF11 + Y279S); assay: Quinol:cytochrome c reductase activity, inhibitor titration, Plasmodium-like mutant PF12; type: biochemical, Saccharomyces cerevisiae; conditions: ratio of IC50 on concentration of monomeric bc 1 complex
Description: as §1, §2, §3

[13] = tested on: bovine bc 1 complex; assay: Quinol:cytochrome c reductase activity, inhibitor titration, bovine mitochondria; type: biochemical; conditions: bovine vs yeast WT
Description: as §2, §3

[14] = molecular target: T8, bovine bc 1 complex (Bos taurus, UniProt P00157); assay: as above; type: biochemical; conditions: bovine enzyme; ratio of IC50 on concentration of monomeric bc 1 complex
T8 construct: Peter Rich; from tissue
Description: as §2, §3

[15] = molecular target: T9, yeast bc 1 complex, human-like Qo mutant HSb (Saccharomyces cerevisiae, UniProt P00163, F278A/L275F/M295L); assay: Quinol:cytochrome c reductase activity, inhibitor titration, human-like mutant HSb; type: biochemical; conditions: for IC50: HSb, ratio of IC50 on concentration of monomeric bc 1 complex
T9 construct: Yeast mitochondria were prepared as in; expressed in transfected cells; host or cells: Saccharomyces cerevisiae, mitochondrial transformation; mitochondria
Description: as §1, §2, §3

[16] = molecular target: T10, yeast bc 1 complex, Plasmodium-like Qo mutant PF2 (Saccharomyces cerevisiae, UniProt P00163, C133V/C134L/H141Y/L275F/V135P/Y136W); assay: Quinol:cytochrome c reductase activity, inhibitor titration, Plasmodium-like mutant PF2; type: biochemical; conditions: ratio of IC50 on concentration of monomeric bc 1 complex
T10 construct: Yeast mitochondria were prepared as in; expressed in transfected cells; host or cells: Saccharomyces cerevisiae, mitochondrial transformation; mitochondria
Description: as §1, §2, §3

[17] = tested on: Rhodabacter capsulatus bc 1 complex; conditions: bacterial complex, phenylalanine naturally at position 275; cited from earlier work
[18] = tested on: Rhodabacter capsulatus bc 1 complex, mutations I281M and R283K (yeast numbering); design: method as in PMID 15917236; conditions: bacterial complex with I281M and R283K; cited from earlier work
[19] = molecular target: T7, yeast bc 1 complex, cytochrome b mutant L275F; conditions: vs yeast WT; cited from earlier work
[20] = tested on: P. falciparum bc 1 complex; conditions: P. falciparum enzyme; not expressed as molar ratio; cited from earlier work
[21] = tested on: yeast bc 1 complex, PF11 with deletion Δ158–161; assay: Quinol:cytochrome c reductase activity, PF11 with deletion Δ158–161; type: biochemical, Saccharomyces cerevisiae; conditions: deletion introduced in PF11; not shown
Description: as §2, §3

| Compound | IC50 [4] | IC50 increase (resistance) vs WT [5] | IC50 [5] | IC50 [6] | IC50 [7] | IC50 [8] | IC50 [1] | IC50 [9] | IC50 [10] | IC50 [2] | IC50 [11] | IC50 [12] | IC50 [14] | IC50 [15] | IC50 [16] | IC50 [20] | further results |
| --- | --- | --- | --- | --- | --- | --- | --- | --- | --- | --- | --- | --- | --- | --- | --- | --- | --- |
| antimycin | – | – | – | – | – | – | – | – | – | – | – | – | – | – | – | – | sensitivity compared with that of the WT control ([1]; PF11 vs WT, data not shown): No or very little difference; sensitivity compared with that of the WT control ([2]; HSc vs WT, data not shown): No or very little difference |
| CO/C=C(/C(=O)OC)c1ccccc1Oc1cc(Oc2ccccc2C#N)ncn1 [azoxystrobin] | 5 molar ratio | 6 fold | 120 molar ratio | 20 molar ratio | 60 molar ratio | 130 molar ratio | 40 molar ratio | 45 molar ratio | 220 molar ratio | 140 molar ratio | 30 molar ratio | 30 molar ratio | 180 molar ratio | 160 molar ratio | 16 molar ratio | – | IC50 [3]: 15 nM; lowering of resistance by changes in position 133 to 141 ([1]; PF11 vs PF8): 5 fold; increase in resistance caused by modifications of residues 283 to 299 [10]: 10 fold; resistance of the mammalian enzyme compared to yeast enzyme [13]: 9 fold; resistance conferred by triple mutation ([15]; HSb vs yeast WT): 8 fold |
| O=C1C(O)=C([C@H]2CC[C@H](c3ccc(Cl)cc3)CC2)C(=O)c2ccccc21 [atovaquone] | 2 molar ratio | 9 fold | 35 molar ratio | 4 molar ratio | >850 molar ratio | 200 molar ratio | 3 molar ratio | 10 molar ratio | 16 molar ratio | 60 molar ratio | 150 molar ratio | >850 molar ratio | 75 molar ratio | 170 molar ratio | 10 molar ratio | ~3 nM and 3 nM | IC50 [17]: ~30 nM; IC50 increase (resistance) vs WT ([9]; M295L vs yeast WT): 2.5 fold; IC50 [18]: 10 nM; resistance vs WT enzyme ([2]; HSc vs yeast WT): 15 fold; decrease in sensitivity on introducing L275F in yeast bc 1 complex [19]: over 20 fold; IC50 increase (resistance) vs WT ([11]; L275F vs yeast WT): 35 fold; effect of deletion Δ158–161 on sensitivity [21]: little effect |
| CCOC(=O)c1c[nH]c2cc(Oc3ccc(OC(F)(F)F)cc3)ccc2c1=O [RCQ06] | >500 molar ratio | – | – | >500 molar ratio | >500 molar ratio | – | 25 molar ratio | – | 40 molar ratio | – | 10 molar ratio | >500 molar ratio | 40 molar ratio | – | 10 molar ratio | ~1.3 nM and 1.3 nM | increase in sensitivity vs WT ([11]; L275F vs yeast WT): over 50 fold |
